Values after ≈ are worked out from the molar mass of the structure shown. Read-outs that look alike come from different tables or passages of the source.
Key:
WT Mabs ATCC 19977 [1] = type: cell-based, M. abscessus subsp. abscessus; conditions: for tolerance to antibiotics under hypoxia: 7 d treatment, AMK 64, AZI 32, CFZ 2, IMI 32 mg L^−1; for decrease in viability compared to DMSO-treated controls: WT strain, 40 μM, 7 d of hypoxia; for tolerance of DosS inhibitor-treated cells to AZI: AZI for 7 d under hypoxia; for tolerance of DosS inhibitor-treated cells to CFZ: CFZ for 7 d under hypoxia
[2] = tested on: MabsΔdosRS complemented with dosRS; type: cell-based, M. abscessus subsp. abscessus; conditions: for tolerance to antibiotics under hypoxia: dosRS complemented mutant, 7 d treatment, AMK 64, AZI 32, CFZ 2, IMI 32 mg L^−1; for decrease in viability compared to DMSO-treated controls: dosRS complemented strain, 40 μM, 7 d of hypoxia
MabsΔdosRS [3] = type: cell-based, M. abscessus subsp. abscessus; conditions: for decrease in survival compared to the DMSO-treated mutant control: 7 d under hypoxia, AMK 64 mg L^−1, AZI 32 mg L^−1, CFZ 2 mg L^−1; for susceptibility of the dosRS mutant to AMI or AZI after DosS inhibitor treatment: 40 μM DosS inhibitor, AMI 64 mg L^−1, AZI 32 mg L^−1, 7 d hypoxia; for decrease in viability compared to DMSO control: 40 μM, 7 d of hypoxia
Mabs ATCC 19977 = assay: MIC determination (resazurin blue test); type: cell-based, M. abscessus subsp. abscessus; conditions: Mycobacteroides abscessus, ATCC19977, 120 h, read-out: Minimum Inhibitory Concentrations (MICs)
WT Mabs ATCC 19977 [4] = assay: Biofilm formation assay in SCFM (crystal violet staining); type: cell-based, M. abscessus subsp. abscessus; conditions: Mycobacteroides abscessus, ATCC19977, 120 h, read-out: IC50 values (required to inhibit 50% of biofilm formation)
Mabs ATCC 19977 biofilms = assay: Biofilm dispersal assay on established 4-d old biofilms; type: cell-based, M. abscessus subsp. abscessus; conditions: 24 h in PBS
[5] = tested on: NO-signaling (dosR induction); assay: NO signaling: RT-qPCR of dosR after Spermine NONOate; type: cell-based, M. abscessus subsp. abscessus; conditions: 50 μM inhibitor for 1 h, then Spermine NONOate 50 μM for 40 min
Procedure: FIG. 18: Effect of DosS inhibitors on NO signaling. Mabs ATCC 19977 was grown to OD ˜0.3 in 7H9-ADC-Tween 80, treated for 1 h with either DMSO (control) or 50 μM of DosS inhibitors, followed by addition of Spermine NONOate (50 μM final concentration). […] Ratios of dosR/sigA mRNA are means±SD (n=3 RNA extractions and RT-qPCR reactions).
Since the DosRS pathway of MABSC has been reported to be induced by NO, RT-qPCR was used to determine whether ART, OZ439, and MSU-39446 inhibited the induction of DosR-regulated genes in WT Mabs ATCC 19977 following treatment with spermine/nitric oxide (Spermine/NO) for 40 min.

[6] = molecular target: Mabs ATCC 19977 DosS (MAB_3890c) (Mycobacteroides abscessus, UniProt B1MH83); assay: UV-visible spectroscopy assay of DosS heme redox status; type: biochemical, M. abscessus subsp. abscessus; conditions: 100 μM; DTN-reduced DosS (427 nm); at time 0
Chain of Mabs ATCC 19977 DosS (MAB_3890c) (B1MH83 entry or part of it): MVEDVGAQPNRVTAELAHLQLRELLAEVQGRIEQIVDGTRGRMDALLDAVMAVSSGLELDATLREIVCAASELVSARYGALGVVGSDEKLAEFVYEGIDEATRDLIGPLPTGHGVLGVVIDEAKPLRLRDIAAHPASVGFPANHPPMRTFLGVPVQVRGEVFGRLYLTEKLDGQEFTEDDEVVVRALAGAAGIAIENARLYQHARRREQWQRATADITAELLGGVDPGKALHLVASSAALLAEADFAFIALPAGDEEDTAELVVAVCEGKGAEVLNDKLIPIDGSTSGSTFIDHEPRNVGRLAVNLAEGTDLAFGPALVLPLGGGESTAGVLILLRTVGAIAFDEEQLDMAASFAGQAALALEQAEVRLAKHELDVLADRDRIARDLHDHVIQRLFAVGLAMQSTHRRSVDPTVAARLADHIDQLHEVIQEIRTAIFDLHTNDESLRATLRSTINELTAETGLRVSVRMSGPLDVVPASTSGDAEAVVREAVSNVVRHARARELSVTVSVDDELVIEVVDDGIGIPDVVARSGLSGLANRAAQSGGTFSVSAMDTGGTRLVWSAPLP
Text: FIG. 7: Inhibition of the sensor kinase heme of DosS by ART, OZ439 and MSU-39446. UV-visible spectra of DosS showing treatment with dithionite (DTN) reduces the heme, which is the “on” state for the kinase. ART, OZ439 and MSU-39446, but not the degassed DMSO control, oxidize the heme.
UV-visible spectroscopy assay and mass spectrometry. A recombinant form of Mabs ATCC 19977 DosS (MAB_3890c) was produced in E. coli BL21(DE3) using the pET14b expression system (Novagen, Madison, WI) and pGro7, and purified essentially as described. Briefly, His-DosS expression was induced by isopropyl-thio-β-D-galactopyranoside (IPTG, 0.5 mM) at 16° C. for 20 h. The cell pellet was suspended in lysis buffer (50 mM sodium phosphate (pH 7.6), 10% glycerol, 200 mM sodium chloride, 1% Triton X-100, 0.5 mg mL^−1 lysozyme, 0.1 mg mL^−1 PMSF) and the cell suspension was incubated with shaking at 37° C. for 30 min prior to lysis using a French press (1400-1800 PSI). The soluble extract was applied to a Co^2+ column (Clontech) and washed with washing buffers (with or without 20 mM imidazole in 50 mM sodium phosphate (pH 7.6), 10% glycerol and 500 mM sodium chloride). […] The absorption spectrum of Mabs DosS ([…]) was analyzed as previously described. […] The UV-visible spectra were recorded for kinetic changes over 2 h using a UV-1800 spectrophotometer (Shimadzu). […]

MabsΔdosRS [7] = assay: RNA-seq transcriptional profiling under microaerophilic conditions, dosRS KO mutant; conditions: 20 μM
WT Mabs ATCC 19977 [8] = assay: Acute SCID mouse model of MABSC infection; conditions: SCID mice
in vivo = conditions: SCID, mouse, po, 50 mg/kg
Procedure: (A) Exposure of OZ439 in Mabs ATCC 19977-infected SCID mice. In the acute model, mice received OZ439 orally (200 mg/kg) every other d for 14 d. In the chronic model, mice received OZ439 orally (50 mg/kg) every other d for 28 d. Shown are the averages (±SD) of lung and plasma concentrations 2 and 48 hs after the last dosing. Two mice were used per time point in the acute model. Four mice were used per time point in the chronic model.
(A) Exposure of OZ277 in Mabs ATCC 19977-infected SCID mice. Mice received OZ277 orally (200 mg/kg) daily for 14 days. Shown are the averages (±SD) of lung and plasma concentrations 2 and 24 hours after the last dosing. Two mice were used per time point.
Four to eight Mabs ATCC 19977-infected SCID mice (2 to 4 mice per time point) having received OZ277 and OZ439 as stand-alone drugs by gavage were ethically euthanized on the last day of the experiment for comparison of drug concentrations in the plasma and lung tissues 2 and 24 h (OZ277) or 2 and 48 h (OZ439) after the last dose. For quantitation of OZ277 and OZ439 by HPLC coupled to tandem mass spectrometry (LC-MS/MS), 1 mg mL^−1 DMSO stock solutions of OZ277 and OZ439 were serially diluted in 50/50 acetonitrile/water to create standard curves and quality control spiking solutions. […] Lung tissues were weighed and homogenized in 19 volumes of PBS containing 1% formic acid to 1 part tissue that was pre-chilled. […]

WT Mabs ATCC 19977 [9] = assay: Chronic SCID mouse model of MABSC infection; conditions: SCID mice; 50 mg/kg gavage every other day for 28 d
[10] = in SCFM and cation-adjusted Mueller-Hinton II media, 5 d at 37° C., higher concentrations not tested due to solubility
[11] = 5 d of growth in SCFM, poly-D-lysine-coated plates
[12] = 200 mg/kg gavage for 14 days (OZ439 every other day)

Procedure for THP-1 cells: FIG. 21: THP-1 cells were plated at 1×10^6 cells per ml in 24-well plates and treated for 24 hrs. with 10 ng/ml PMA for differentiating to macrophages. PMA medium was removed, and cells were cultured for an additional 24 hrs. Cells were then treated with either nothing, 300 ng/ml LPS or either Mabs ATCC19977 (smooth) or Mabs ATCC19977 (rough)(aka CipR) at an MOI of 5. After 9 h, the medium was removed and replaced with medium containing either nothing or 6 μM of OZ439 in triplicate wells and THP-1 cells were cultured for an additional 30 hr. Supernatants were harvested and assayed for NO production by the Griess Assay. Half the cells were stained with H2DCFDA for ROS analysis and half were stained for macrophage activation markers and analyzed by flow cytometry. Statistical differences between treatment groups were determined by one way ANOVA with Dunnett's multiple comparison test (*=p<0.05; ***=p<0.001; ****=p<0.0001).
THP-1 cells were plated at 1×10^6 cells per ml in 24-well plates and treated for 24 hrs. with 10 ng/ml PMA for differentiating to macrophages. PMA medium was removed, and cells were cultured for an additional 24 hrs. Cells were then treated with either nothing, 300 ng/ml LPS or either Mabs ATCC19977 (smooth) or Mabs ATCC19977 (rough) (aka CipR) at an MOI of 5. After 9 h, the medium was removed and replaced with medium containing either nothing or 6 μM of OZ439 in triplicate wells and THP-1 cells were cultured for an additional 30 hr. Supernatants were harvested and assayed for NO production by the Griess Assay. Half the cells were stained with H2DCFDA for ROS analysis and half were stained for macrophage activation markers and analyzed by flow cytometry. Statistical differences between treatment groups were determined by one way ANOVA with Dunnett's multiple comparison test (*=p<0.05; ***=p<0.001; ****=p<0.0001).

NCC[C@H](O)C(=O)N[C@@H]1C[C@H](N)[C@@H](O[C@H]2O[C@H](CN)[C@@H](O)[C@H](O)[C@H]2O)[C@H](O)[C@H]1O[C@H]1O[C@H](CO)[C@@H](O)[C@H](N)[C@H]1O [AMK, amikacin]
tolerance to antibiotics under hypoxia (WT Mabs ATCC 19977 [1]; WT): fully tolerant to all antibiotics
tolerance to antibiotics under hypoxia [2]: fully tolerant to all antibiotics
decrease in survival compared to the DMSO-treated mutant control (MabsΔdosRS [3]): 15%

C[C@@H]1CC[C@H]2[C@@H](C)C(=O)O[C@@H]3O[C@@]4(C)CC[C@@H]1[C@]32OO4 [ART, artemisinin]
MIC (Mabs ATCC 19977; [10]): > 400 µM
decrease in viability compared to DMSO-treated controls (WT Mabs ATCC 19977 [1]): 1.12 log10 CFU
tolerance of DosS inhibitor-treated cells to AMK (WT Mabs ATCC 19977 [1]; WT, 40 μM DosS inhibitor, AMK for 7 d under hypoxia): decrease in the tolerance
tolerance of DosS inhibitor-treated cells to AZI (WT Mabs ATCC 19977 [1]; WT, 40 μM DosS inhibitor): decrease in the tolerance
tolerance of DosS inhibitor-treated cells to CFZ (WT Mabs ATCC 19977 [1]; WT, 40 μM DosS inhibitor): unaffected
decrease in viability compared to DMSO-treated controls [2]: 0.64 log10 CFU
susceptibility of the dosRS mutant to AMI or AZI after DosS inhibitor treatment (MabsΔdosRS [3]): did not significantly enhance the susceptibility
decrease in viability compared to DMSO control (MabsΔdosRS [3]): did not exhibit any significant decrease in viability
IC50 (WT Mabs ATCC 19977 [4]; [11]): 800 to 1600 nM
dispersal of established biofilms (Mabs ATCC 19977 biofilms): none of the compounds dispersed the biofilms
inhibition of NO-signaling (dosR induction) [5]: none of the inhibitors tested inhibited NO-signaling
DosS Soret peak position [6]: 421 nm
number of downregulated genes in the treated mutant (MabsΔdosRS [7]): 22

C[C@H]1[C@H](OC(=O)CCC(=O)O)O[C@@H]2O[C@@]3(C)CC[C@H]4[C@H](C)CC[C@@H]1[C@@]24OO3 [AS, artesunate]
MIC (Mabs ATCC 19977): > 400 µM
IC50 (WT Mabs ATCC 19977 [4]): 800 to 1600 nM
dispersal of established biofilms (Mabs ATCC 19977 biofilms): none of the compounds dispersed the biofilms

CC[C@H]1OC(=O)[C@H](C)[C@@H](O[C@H]2C[C@@](C)(OC)[C@@H](O)[C@H](C)O2)[C@H](C)[C@@H](O[C@@H]2O[C@H](C)C[C@H](N(C)C)[C@H]2O)[C@](C)(O)C[C@@H](C)CN(C)[C@H](C)[C@@H](O)[C@]1(C)O [AZI, azithromycin]
tolerance to antibiotics under hypoxia (WT Mabs ATCC 19977 [1]; WT): fully tolerant to all antibiotics
tolerance to antibiotics under hypoxia [2]: fully tolerant to all antibiotics
decrease in survival compared to the DMSO-treated mutant control (MabsΔdosRS [3]): 64%

CC(C)/N=c1\cc2n(-c3ccc(Cl)cc3)c3ccccc3nc-2cc1Nc1ccc(Cl)cc1 [CFZ, clofazimine]
tolerance to antibiotics under hypoxia (WT Mabs ATCC 19977 [1]; WT): fully tolerant to all antibiotics
tolerance to antibiotics under hypoxia [2]: fully tolerant to all antibiotics
decrease in survival compared to the DMSO-treated mutant control (MabsΔdosRS [3]): 52%

CC(C)(N)CNC(=O)C[C@H]1CC[C@]2(CC1)OO[C@]1(O2)C2CC3CC(C2)CC1C3 [OZ277, arterolane]
MIC (Mabs ATCC 19977; [10]): > 400 µM
IC50 (WT Mabs ATCC 19977 [4]; [11]): 800 to 1600 nM
dispersal of established biofilms (Mabs ATCC 19977 biofilms): none of the compounds dispersed the biofilms
bacterial burdens in lungs and liver, compound by itself (WT Mabs ATCC 19977 [8]; [12]): significantly reduced bacterial burdens
bacterial burdens in spleen, compound by itself (WT Mabs ATCC 19977 [8]; [12]): significantly reduced bacterial burdens
adjunct efficacy in combination with antibiotics (AMK, AZI, IMI, CFZ) (WT Mabs ATCC 19977 [8]; 200 mg/kg gavage, vs antibiotics alone): No statistically significant differences

c1cc([C@H]2CC[C@]3(CC2)OO[C@]2(O3)C3CC4CC(C3)CC2C4)ccc1OCCN1CCOCC1 [OZ439, artefenomel]
MIC (Mabs ATCC 19977; [10]): 400 µM (≈ 188 µg/mL)
decrease in viability compared to DMSO-treated controls (WT Mabs ATCC 19977 [1]): 1.18 log10 CFU
tolerance of DosS inhibitor-treated cells to AZI (WT Mabs ATCC 19977 [1]; WT, 40 μM DosS inhibitor): decrease in the tolerance
tolerance of DosS inhibitor-treated cells to CFZ (WT Mabs ATCC 19977 [1]; WT, 40 μM DosS inhibitor): unaffected
decrease in viability compared to DMSO-treated controls [2]: 0.72 log10 CFU
susceptibility of the dosRS mutant to AMI or AZI after DosS inhibitor treatment (MabsΔdosRS [3]): did not significantly enhance the susceptibility
decrease in viability compared to DMSO control (MabsΔdosRS [3]): did not exhibit any significant decrease in viability
IC50 (WT Mabs ATCC 19977 [4]; [11]): 800 to 1600 nM
dispersal of established biofilms (Mabs ATCC 19977 biofilms): none of the compounds dispersed the biofilms
inhibition of NO-signaling (dosR induction) [5]: none of the inhibitors tested inhibited NO-signaling
concentration at 2 h (in vivo): ~6.2 µM
concentration at 48 h (in vivo): ~3.9 µM
reduction in bacterial load in the lung (WT Mabs ATCC 19977 [8]; 200 mg/kg gavage every other day for 14 d): ~1.8 log10
bacterial burdens in lungs and liver, compound by itself (WT Mabs ATCC 19977 [8]; [12]): significantly reduced bacterial burdens
efficacy by itself (bacterial loads in lungs, liver and spleen) (WT Mabs ATCC 19977 [9]): comparable to that of all four antibiotics
expression of macrophage activation markers (THP-1 cells; 6 μM OZ439 alone, non-infected): increased expression of some macrophage activation markers (MHC class II and CD80)
NO production (Griess Assay) (THP-1 cells; 6 μM, THP-1 infected with Mabs ATCC19977 smooth strain, 30 hr): reverted this activation
expression of macrophage activation markers (MHC class II, CD80, CD86, CD40) (THP-1 cells; 6 μM, THP-1 infected with Mabs, vs not treated): significant increases in all macrophage activation markers
ROS (H2DCFDA) (THP-1 cells; 6 μM, absence of Mabs infection): upregulated
ROS production (H2DCFDA) (THP-1 cells; 6 μM, cultures infected with Mabs (rough or smooth)): decreased
number of downregulated genes in the treated mutant (MabsΔdosRS [7]): 10

Source: patent publication US20240139148A1, “COMPOSITIONS AND METHODS FOR TREATING NON-TUBERCULOUS MYCOBACTERIAL INFECTIONS” (priority 2021, published 2024)
